Laboratory results reported in patent publication US20240199535A1, “DEUTERATED DHODH INHIBITORS” (priority 2021, published 2024).

Experiments:
SARS-CoV-2 = test: Antiviral activity on SARS-CoV-2, viral replication (YFP) assay; assay type: cell-based; settings: Severe acute respiratory syndrome coronavirus 2, read-out: EC50 range
in vivo [1] = settings: Han Wistar, rat
Experimental: Rats are provided with a catheter in the jugular vein (2-3 days prior to blood sampling). At each designated time point (0, 1, 2, 4, 8 and 24 h after dosing), 100 μL blood were collected into Li-heparin tubes, stored on ice until centrifugation (10 minutes at 3000 g, 4° C.) and plasma was prepared within 45 min after collection, frozen at −20° C. and stored at this temperature until processed for LC-MS analysis.

in vitro [2] = settings: human, microsomes
in vivo [3] = settings: CC7BL/6J, mouse, po, 5 mg/kg
Experimental: The pharmacokinetics of the compounds of the present invention was evaluated in 3 male and 3 female mice (CC7BL/6J, 8 week old) after oral cassette dosing. Dose was 5 mg/kg, application volume was 5 mL/kg and vehicle was 5% Solutol, 95% NaCl solution (at 0.9% saline concentration). At each designated time point (0, 0.25, 0.5, 1, 2, 4, 8 h after dosing), 20 μL whole blood were collected from the tail vein into Li-heparin tubes, frozen on dry ice within 1-2 minutes of sampling and stored at −20° C. until processed for LC-MS analysis.

in vitro [4] = settings: male, rat, microsomes
SARS-CoV-2 d6-YFP = test: Combinatorial drug assessment with EIDD-1931, viral replication inhibition assay; assay type: cell-based

SMILES: [2H]C([2H])([2H])Oc1cccc(-c2cc(F)c(NC(=O)C3=C(C(=O)O)CCC3)c(F)c2)n1 [1/10]
- EC50 (SARS-CoV-2): 10 to 25 µM

SMILES: [2H]C([2H])([2H])Oc1ccccc1-c1cc(F)c(NC(=O)C2=C(C(=O)O)CCC2)c(F)c1 [1/4]
- EC50 (SARS-CoV-2): < 10 µM

SMILES: [2H]c1cc([2H])c(-c2ccc(NC(=O)C3=C(C(=O)O)CCC3)c(F)c2)c([2H])c1OC([2H])([2H])[2H] [Example 2, 2-((3-Fluoro-3′-(methoxy-d3)-[1,1′-biphenyl]-4-yl-2′,4′,6′-d3)carbamoyl)cyclopent-1-ene-1-carboxylic Acid]
- % AUCextra (in vivo [1]; female, iv, 1 mg/kg): 13%
- AUC(0-inf) (in vivo [1]; female, iv, 1 mg/kg): 79100 ng·h/mL
- AUC(0-t) (in vivo [1]; female, iv, 1 mg/kg): 64700 ng·h/mL
- C0 (in vivo [1]; female, iv, 1 mg/kg): 7980 ng/mL
- Cz (in vivo [1]; female, iv, 1 mg/kg): 915 ng/mL
- Vz/f (in vivo [1]; female, iv, 1 mg/kg): 0.017 L/kg
- t1/2z (in vivo [1]; female, iv, 1 mg/kg): 10.0 h
- tz (in vivo [1]; female, iv, 1 mg/kg): 24 h
- bioavailability (in vivo [1]; female, po): 83.1%
- % AUCextra (in vivo [1]; female, po, 5 mg/kg): 16%
- AUC(0-inf) (in vivo [1]; female, po, 5 mg/kg): 320000 ng·h/mL
- AUC(0-t) (in vivo [1]; female, po, 5 mg/kg): 269000 ng·h/mL
- CL/F (in vivo [1]; female, po, 5 mg/kg): 3.5 mL/min/kg
- Cmax (in vivo [1]; female, po, 5 mg/kg): 21300 ng/mL
- Cz (in vivo [1]; female, po, 5 mg/kg): 3892 ng/mL
- Tmax (in vivo [1]; female, po, 5 mg/kg): 2 h
- Vd/F (in vivo [1]; female, po, 5 mg/kg): 0.017 L/kg
- t1/2z (in vivo [1]; female, po, 5 mg/kg): 9.3 h
- tz (in vivo [1]; female, po, 5 mg/kg): 24 h
- % AUCextra (in vivo [1]; male, iv, 1 mg/kg): 23%
- AUC(0-inf) (in vivo [1]; male, iv, 1 mg/kg): 45200 ng·h/mL
- AUC(0-t) (in vivo [1]; male, iv, 1 mg/kg): 40400 ng·h/mL
- C0 (in vivo [1]; male, iv, 1 mg/kg): 5310 ng/mL
- Cz (in vivo [1]; male, iv, 1 mg/kg): 422 ng/mL
- Vz/f (in vivo [1]; male, iv, 1 mg/kg): 0.01 L/kg
- t1/2z (in vivo [1]; male, iv, 1 mg/kg): 7.6 h
- tz (in vivo [1]; male, iv, 1 mg/kg): 24 h
- bioavailability (in vivo [1]; male, po): 100%
- % AUCextra (in vivo [1]; male, po, 5 mg/kg): 22%
- AUC(0-inf) (in vivo [1]; male, po, 5 mg/kg): 233000 ng·h/mL
- AUC(0-t) (in vivo [1]; male, po, 5 mg/kg): 202000 ng·h/mL
- CL/F (in vivo [1]; male, po, 5 mg/kg): 3.43 mL/min/kg
- Cmax (in vivo [1]; male, po, 5 mg/kg): 16000 ng/mL
- Cz (in vivo [1]; male, po, 5 mg/kg): 1657 ng/mL
- Tmax (in vivo [1]; male, po, 5 mg/kg): 2 h
- Vd/F (in vivo [1]; male, po, 5 mg/kg): 0.008 L/kg
- t1/2z (in vivo [1]; male, po, 5 mg/kg): 6.6 h
- tz (in vivo [1]; male, po, 5 mg/kg): 24 h
- microsomal CLint (in vitro [2]; both): 0.74 µL/min/mg
- microsomal CLint (in vitro [2]; female): 5.8 µL/min/mg
- microsomal CLint (in vitro [2]; male): 7.67 µL/min/mg

SMILES: [2H]C([2H])([2H])Oc1cccc(-c2ccc(NC(=O)C3=C(C(=O)O)CCC3)c(F)c2)c1 [Example 1, 2-((3-Fluoro-3′-(methoxy-d3)-[1,1′-biphenyl]-4-yl)carbamoyl)cyclopent-1-ene-1-carboxylic Acid]
- % AUCextra (in vivo [1]; female, iv, 1 mg/kg): 13%
- AUC(0-inf) (in vivo [1]; female, iv, 1 mg/kg): 80700 ng·h/mL
- AUC(0-t) (in vivo [1]; female, iv, 1 mg/kg): 66200 ng·h/mL
- C0 (in vivo [1]; female, iv, 1 mg/kg): 7010 ng/mL
- Cz (in vivo [1]; female, iv, 1 mg/kg): 943 ng/mL
- Vz/f (in vivo [1]; female, iv, 1 mg/kg): 0.017 L/kg
- t1/2z (in vivo [1]; female, iv, 1 mg/kg): 9.9 h
- tz (in vivo [1]; female, iv, 1 mg/kg): 24 h
- bioavailability (in vivo [1]; female, po): 75.3%
- % AUCextra (in vivo [1]; female, po, 5 mg/kg): 17%
- AUC(0-inf) (in vivo [1]; female, po, 5 mg/kg): 291000 ng·h/mL
- AUC(0-t) (in vivo [1]; female, po, 5 mg/kg): 249000 ng·h/mL
- CL/F (in vivo [1]; female, po, 5 mg/kg): 3.77 mL/min/kg
- Cmax (in vivo [1]; female, po, 5 mg/kg): 19700 ng/mL
- Cz (in vivo [1]; female, po, 5 mg/kg): 3536 ng/mL
- Tmax (in vivo [1]; female, po, 5 mg/kg): 2 h
- Vd/F (in vivo [1]; female, po, 5 mg/kg): 0.016 L/kg
- t1/2z (in vivo [1]; female, po, 5 mg/kg): 9.1 h
- tz (in vivo [1]; female, po, 5 mg/kg): 24 h
- % AUCextra (in vivo [1]; male, iv, 1 mg/kg): 22%
- AUC(0-inf) (in vivo [1]; male, iv, 1 mg/kg): 47900 ng·h/mL
- AUC(0-t) (in vivo [1]; male, iv, 1 mg/kg): 42600 ng·h/mL
- C0 (in vivo [1]; male, iv, 1 mg/kg): 5540 ng/mL
- Cz (in vivo [1]; male, iv, 1 mg/kg): 437 ng/mL
- Vz/f (in vivo [1]; male, iv, 1 mg/kg): 0.01 L/kg
- t1/2z (in vivo [1]; male, iv, 1 mg/kg): 7.9 h
- tz (in vivo [1]; male, iv, 1 mg/kg): 24 h
- bioavailability (in vivo [1]; male, po): 86%
- % AUCextra (in vivo [1]; male, po, 5 mg/kg): 24%
- AUC(0-inf) (in vivo [1]; male, po, 5 mg/kg): 210000 ng·h/mL
- AUC(0-t) (in vivo [1]; male, po, 5 mg/kg): 183000 ng·h/mL
- CL/F (in vivo [1]; male, po, 5 mg/kg): 3.82 mL/min/kg
- Cmax (in vivo [1]; male, po, 5 mg/kg): 14600 ng/mL
- Cz (in vivo [1]; male, po, 5 mg/kg): 1525 ng/mL
- Tmax (in vivo [1]; male, po, 5 mg/kg): 2 h
- Vd/F (in vivo [1]; male, po, 5 mg/kg): 0.008 L/kg
- t1/2z (in vivo [1]; male, po, 5 mg/kg): 6.6 h
- tz (in vivo [1]; male, po, 5 mg/kg): 24 h
- AUC (in vivo [3]; female): 5740 ng·h/mL
- Cmax (in vivo [3]; female): 3440 ng/mL
- half-life (in vivo [3]; female): 1.6 h
- AUC (in vivo [3]; male): 5110 ng·h/mL
- Cmax (in vivo [3]; male): 4110 ng/mL
- half-life (in vivo [3]; male): 1.7 h
- microsomal CLint (in vitro [4]): 13.4 µL/min/mg
- microsomal CLint (in vitro [2]; both): 0.96 µL/min/mg
- microsomal CLint (in vitro [2]; female): 5.02 µL/min/mg
- microsomal CLint (in vitro [2]; male): 7.69 µL/min/mg

SMILES: [2H]C([2H])([2H])Oc1cc(-c2cc(F)c(NC(=O)C3=C(C(=O)O)CCC3)c(F)c2)ccn1 [1/9]
- EC50 (SARS-CoV-2): 25 to 50 µM

SMILES: [2H]c1c([2H])c(F)c([2H])c(-c2cc(F)c(NC(=O)C3=C(C(=O)O)CCC3)c(F)c2)c1[2H] [1/7]
- EC50 (SARS-CoV-2): < 10 µM

SMILES: [2H]C([2H])([2H])C([2H])([2H])Oc1cccc(-c2cc(F)c(NC(=O)C3=C(C(=O)O)CCC3)c(F)c2)c1 [1/3]
- EC50 (SARS-CoV-2): < 10 µM

SMILES: [2H]C([2H])([2H])Oc1cccc(-c2cc(F)c(NC(=O)C3=C(C(=O)O)CCC3)c(F)c2)c1 [Example 9, 2-((3,5-Difluoro-3′-(methoxy-d3)-[1,1′-biphenyl]-4-yl)carbamoyl)cyclopent-1-ene-1-carboxylic Acid]
- EC50 (SARS-CoV-2): 10 to 25 µM
- antiviral effect on SARS-CoV-2 in combination with nucleoside analogue EIDD-1931 (SARS-CoV-2 d6-YFP): synergistic antiviral effects

SMILES: [2H]C([2H])([2H])Oc1cccc(-c2c(F)c(F)c(NC(=O)C3=C(C(=O)O)CCC3)c(F)c2F)c1 [1/2]
- EC50 (SARS-CoV-2): < 10 µM

SMILES: [2H]c1cc([2H])c(-c2ccc(NC(=O)C3=C(C(=O)O)CCC3)c(F)c2)c([2H])c1O [Example 8, 2-((3-Fluoro-3′-hydroxy-[1,1′-biphenyl]-4-yl-2′,4′,6′-d3)carbamoyl)cyclopent-1-ene-1-carboxylic Acid]
- EC50 (SARS-CoV-2): 25 to 50 µM
